39 compounds from patent US8299056B2 (Signal Pharmaceuticals, LLC, priority 2008, dated 2012) can be followed below.

SMILES strings stand for the structures. pIC50: −log10 of the molar value. Like-named read-outs stand apart in the source and are kept apart here.

For this assay, the target named is T1, Syk (Homo sapiens, UniProt P43405).
T1 construct: purchased Carna Biosciences
The experiment in a line: Syk HTRF assay. The assay is classed as biochemical. A digest of the protocol:
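Read-out is the 665 nm/615 nm time-resolved fluorescence ratio after EDTA stop and Eu-anti-phosphotyrosine plus streptavidin-DyLight 647 detection. Reaction ran 1 h at room temperature with start mix of 87.5 μM ATP and 80 nM substrate peptide in pH 7.6 HEPES/MgCl2 buffer.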

The mark [1] stands for this setting: activity levels A-D, read-out: Activity Level (IC50 in the Syk HTRF assay).
[2] abbreviates: read-out: Activity Level (Syk HTRF assay IC50).
Setting [3] is: IC50 activity level, read-out: Activity Level.

With `O=C1CCN(Cc2cccc3nc(Nc4ccc(C(F)(F)F)cc4)nn23)CCN1` [Example 269, 1-((2-(4-(trifluoromethyl)phenylamino)-[1,2,4]triazolo[1,5-a]pyridin-5-yl)methyl)-1,4-diazepan-5-one], under setting [1], the pIC50 was 6.00 to 6.30.
As for `OCc1nc2ccc(Nc3nc4cccc(-c5cccc(F)c5)n4n3)cc2[nH]1` [compound 3, (6-(5-(3-fluorophenyl)-[1,2,4]triazolo[1,5-a]pyridin-2-ylamino)-1H-benzo[d]imidazol-2-yl)methanol], under setting [2], the pIC50 is 6.60 to 11.30.
`CNC(=O)c1ccc(Nc2nc3cccc(-n4ccnc4)n3n2)cc1` [Example 241, 4-(5-(1H-imidazol-1-yl)-[1,2,4]triazolo[1,5-a]pyridin-2-ylamino)-N-methylbenzamide]: the pIC50 under setting [1] was 5.00 to 6.00.
Take `c1cc(NC2CCOCC2)n2nc(Nc3cnc4cn[nH]c4c3)nc2c1` [compound 111]: the pIC50 under setting [2] was 5.00 to 6.00.
The same measure, in the same setting: to `CC1(C)C(=O)Nc2cc(Nc3nc4cccc(N5CC(O)C5)n4n3)ccc21` [Example 170, 6-(5-(3-hydroxyazetidin-1-yl)-[1,2,4]triazolo[1,5-a]pyridin-2-ylamino)-3,3-dimethylindolin-2-one] belongs 6.60 to 11.30.
Same read-out and setting: the value for `O=c1cc(C(O)c2cccc3nc(Nc4ccc(C(F)(F)F)cc4)nn23)nc[nH]1` (stereo not drawn) [Example 193, 6-(hydroxy(2-(4-(trifluoromethyl)phenylamino)-[1,2,4]triazolo[1,5-a]pyridin-5-yl)methyl)pyrimidin-4(3H)-one] was 6.60 to 11.30.
Regarding `O[C@H]1CC[C@@H](Nc2cccc3nc(Nc4cnc5cn[nH]c5c4)nn23)CC1` [Example 553, cis-4-(2-(1H-pyrazolo-[4,3-b]pyridin-6-ylamino)-[1,2,4]triazolo[1,5-a]pyridin-5-ylamino)cyclohexanol], the pIC50 under setting [3] was 6.60 to 11.30.
The same measure, in the same setting: to `c1ccc(Nc2nc3cccc(CC4CCCNC4)n3n2)cc1` (stereo not drawn) [Example 478, N-phenyl-5-(piperidin-3-ylmethyl)-[1,2,4]triazolo[1,5-a]pyridin-2-amine] belongs 6.30 to 6.60.
`CC(C)Nc1cccc2nc(Nc3ccc(C(F)(F)F)cc3)nn12` [Example 330, N^5-isopropyl-N^2-(4-(trifluoromethyl)phenyl)-[1,2,4]triazolo[1,5-a]pyridin-2,5-diamine]: the pIC50 under setting [1] was 5.00 to 6.00.
For the compound `NC(=O)c1ccc(Nc2nc3cccc(-c4ccccc4)n3n2)cc1` [Example 88], the pIC50 under setting [2] is 6.60 to 11.30.
Turning to `O[C@@H]1CCCN(c2cccc3nc(Nc4ccc(C(F)(F)F)cc4)nn23)C1` [Example 309, (R)-1-(2-(4-(trifluoromethyl)phenylamino)-[1,2,4]triazolo[1.5-a]pyridin-5-yl)piperidin-3-ol], the pIC50 under setting [1] is 6.00 to 6.30.
Turning to `CC1(C)C(=O)Nc2cc(Nc3nc4cccc(N[C@H]5CC[C@@H](O)CC5)n4n3)ccc21` [Example 202, cis-6-(5-(4-hydroxycyclohexylamino)-[1,2,4]triazolo[1,5-a]pyridin-2-ylamino)-3,3-dimethylindolin-2-one], under setting [1], the pIC50 is 6.60 to 11.30.
For `Cc1nc2ccc(Nc3nc4cccc(-c5cccc(O)c5)n4n3)cc2[nH]1` [compound 10, 3-(2-(2-methyl-1H-benzo[d]imidazol-6-ylamino)-[1,2,4]triazolo[1,5-a]pyridin-5-yl)phenol], under setting [2], the pIC50 was 6.60 to 11.30.
In the case of `c1ccc(Nc2nc3cccc(-c4ccc5nc[nH]c5c4)n3n2)cc1` [Example 514, 5-(1H-benzo[d]imidazol-6-yl)-N-phenyl-[1,2,4]triazolo[1,5-a]pyridin-2-amine], under setting [3], the pIC50 is 6.60 to 11.30.
`CC1(C)C(=O)Nc2cc(Nc3nc4cccc(N[C@@H]5CCOC5)n4n3)ccc21` [Example 150, (R)-3,3-dimethyl-6-(5-(tetrahydrofuran-4-ylamino)-[1,2,4]triazolo[1,5-a]pyridin-2-ylamino)indolin-2-one]: the pIC50 under setting [2] was 6.60 to 11.30.
Turning to `NC(=O)c1cccc(Cc2cccc3nc(Nc4ccccc4)nn23)c1` [Example 442, 3-((2-(phenylamino)-[1,2,4]triazolo[1,5-a]pyridin-5-yl)methyl)benzamide], under setting [3], the pIC50 was 6.30 to 6.60.
As to `Cc1cc(Nc2nc3cccc(NC4CCOCC4)n3n2)cc2c1C(C)(C)C(=O)N2` [compound 125, 3,3,4-trimethyl-6-(5-(tetrahydro-2H-pyran-4-ylamino)-[1,2,4]triazolo[1,5-a]pyridin-2-ylamino)indolin-2-one], the pIC50 under setting [2] was 6.60 to 11.30.
As to `CNC(=O)c1ccc(Nc2nc3cccc(CCC4CCNCC4)n3n2)cc1` [Example 254, N-methyl-4-(5-(2-(piperidin-4-yl)ethyl)-[1,2,4]triazolo[1,5-a]pyridin-2-ylamino)benzamide], under setting [1], the pIC50 was 6.00 to 6.30.
For the compound `Nc1cccc(-c2cccc3nc(Nc4ccccc4)nn23)c1` [Example 87], the pIC50 under setting [2] is 6.60 to 11.30.
Regarding `c1ccc(Nc2nc3cccc(-c4ccc5cn[nH]c5c4)n3n2)cc1` [Example 485, 5-(1H-indazol-6-yl)-N-phenyl-[1,2,4]triazolo[1,5-a]pyridin-2-amine], the pIC50 under setting [3] was 6.60 to 11.30.
`COCc1nc2ccc(Nc3nc4cccc(NC5CCOCC5)n4n3)cc2[nH]1` [Example 142, N^2-(2-(methoxymethyl)-1H-benzo[d]imidazol-6-yl)-N^5-(tetrahydro-2H-pyran-4-yl)-[1,2,4]triazolo[1,5-a]pyridine-2,5-diamine]: the pIC50 under setting [2] was 6.30 to 6.60.
In the case of `C[C@@H](CO)Nc1cccc2nc(Nc3ccc(C(F)(F)F)cc3)nn12` [Example 329, (S)-2-(2-(4-(trifluoromethyl)phenylamino)-[1,2,4]triazolo[1,5-a]pyridin-5-ylamino)propan-1-ol], the pIC50 under setting [1] was 6.00 to 6.30.
Turning to `COCCN1Cc2cc(Nc3nc4cccc(N[C@H]5CC[C@@H](O)CC5)n4n3)ccc2C1=O` [Example 174, cis-5-(5-(4-hydroxycyclohexylamino)-[1,2,4]triazolo[1,5-a]pyridin-2-ylamino)-2-(2-methoxyethyl)isoindolin-1-one], under setting [2], the pIC50 is 6.60 to 11.30.
Regarding `c1ccc(Nc2nc3cccc(OC4CCCCC4)n3n2)cc1` [Example 510], the pIC50 under setting [3] was 5.00 to 6.00.
On the same count and under the same terms, the value for `c1ccc(Nc2nc3cccc(Oc4ccccc4)n3n2)cc1` [Example 503, 5-phenoxy-N-phenyl-[1,2,4]triazolo[1,5-a]pyridin-2-amine] was 5.00 to 6.00; that for `Cc1n[nH]c2ncc(Nc3nc4cccc(N[C@H]5CC[C@@H](O)CC5)n4n3)cc12` [Example 541, cis-4-(2-(3-methyl-1H-pyrazolo[3,4-b]pyridin-5-ylamino)-[1,2,4]triazolo[1,5-a]pyridin-5-ylamino)cyclohexanol] was 6.60 to 11.30; that for `CNCc1nc2ccc(-c3cccc4nc(Nc5ccc(C(F)(F)F)cc5)nn34)cc2[nH]1` [Example 440, 5-(2-((methylamino)methyl)-1H-benzo[d]imidazol-6-yl)-N-(4-(trifluoromethyl)phenyl)-[1,2,4]triazolo[1,5-a]pyridin-2-amine] was 6.60 to 11.30.
Turning to `COc1cc(-c2cccc3nc(Nc4ccccc4)nn23)ccn1` [Example 521], the pIC50 under setting [3] is 6.00 to 6.30.
On to `OC(c1cccnc1)c1cccc2nc(Nc3ccccc3)nn12` (stereo not drawn) [Example 501, (2-(phenylamino)-[1,2,4]triazolo[1,5-a]pyridin-5-yl)(pyridin-3-yl)methanol], for which the pIC50 under setting [3] was 6.30 to 6.60.
With `COc1ccccc1Nc1nc2cccc(N[C@H]3CC[C@@H](O)CC3)n2n1` [Example 339, cis-4-(2-(2-methoxyphenylamino)-[1,2,4]triazolo[1,5-a]pyridin-5-ylamino)cyclohexanol], under setting [1], the pIC50 was 5.00 to 6.00.
Regarding `CNCc1nc2ccc(-c3cccc4nc(Nc5ccc(F)cc5)nn34)cc2[nH]1` [Example 437, N-(4-fluorophenyl)-5-(2-((methylamino)methyl)-1H-benzo[d]imidazol-6-yl)-[1,2,4]triazolo[1,5-a]pyridin-2-amine], under setting [3], the pIC50 was 6.60 to 11.30.
`OC[C@H]1CCCN1c1cccc2nc(Nc3ccc(C(F)(F)F)cc3)nn12` [Example 288, (R)-(1-(2-(4-(trifluoromethyl)phenylamino)-[1,2,4]triazolo[1,5-a]pyridin-5-yl)pyrrolidin-2-yl)methanol]: under setting [1], the pIC50 is 6.30 to 6.60.
Same read-out and setting: to `COCc1n[nH]c2cc(Nc3nc4cccc(N[C@H]5CC[C@@H](O)CC5)n4n3)ccc12` [Example 231, cis-4-(2-(3-(methoxymethyl)-1H-indazol-6-ylamino)-[1,2,4]triazolo[1,5-a]pyridin-5-ylamino)cyclohexanol] belongs 6.60 to 11.30.
As for `Cc1n[nH]c2cc(Nc3nc4cccc(N[C@H]5CCCC5O)n4n3)ccc12` (stereo in doubt) [Example 212, (1S,2S)-2-(2-(3-methyl-1H-indazol-6-ylamino)-[1,2,4]triazolo[1,5-a]pyridin-5-ylamino)cyclopentanol], the pIC50 under setting [1] is 6.60 to 11.30.
On the same count and under the same terms, the value for `CNC(=O)c1ccc(Nc2nc3cccc(N4CCC(O)CC4)n3n2)cc1` [Example 242, 4-(5-(4-hydroxypiperidin-1-yl)-[1,2,4]triazolo[1,5-a]pyridin-2-ylamino)-N-methylbenzamide] was 5.00 to 6.00.
As for `COCc1nc2ccc(Nc3nc4cccc(Cc5ccnc(O)c5)n4n3)cc2[nH]1` [compound 130], the pIC50 under setting [2] was 6.60 to 11.30.
Regarding `CN(C)c1cccc2nc(Nc3ccc4c(c3)NC(=O)C4(C)C)nn12` [Example 566, 6-(5-(dimethylamino)-[1,2,4]triazolo[1,5-a]pyridin-2-ylamino)-3,3-dimethylindolin-2-one], the pIC50 under setting [3] was 6.60 to 11.30.
`OCCOc1cccc2nc(Nc3ccc(C(F)(F)F)cc3)nn12` [Example 315, 2-(2-(4-(trifluoromethyl)phenylamino)-[1,2,4]triazolo[1,5-a]pyridin-5-yloxy)ethanol]: the pIC50 under setting [1] is 5.00 to 6.00.
Turning to `OC[C@@H](Nc1cccc2nc(Nc3ccc(C(F)(F)F)cc3)nn12)c1ccccc1` [Example 413, (S)-2-phenyl-2-(2-(4-(trifluoromethyl)phenylamino)-[1,2,4]triazolo[1,5-a]pyridin-5-ylamino)ethanol], the pIC50 under setting [3] is 5.00 to 6.00.
